pIC50: −log10 of the molar value. Converted amounts (≈) assume the structure as drawn. Where two headings read alike, the source gives them in different places. Values belong to the molecule of their own block, whether it stands above or below them.
What was measured:
Plasmodium falciparum = assay: In vitro antimalarial assay (Plasmodium falciparum); format: cell-based; conditions: for pIC50: Plasmodium falciparum
Experimental: (§1) The protozoan Plasmodium falciparum is a causative agent of malaria, the single most critical infectious disease of mankind. The in vitro antimalarial activity of the C3 -substituted trioxanes was determined according to the method described in Posner et al. (13). The in vivo antimalarial activity was determined as described in Peters et al. (14).
Tables 1 and 2 present a tabulation of a number of compounds which have been synthesized along with the IC50 (in nM).

P. berghei = assay: In vivo antimalarial assay, mice infected with P. berghei malaria; conditions: Plasmodium berghei
Experimental: as §1

erythrocytes = assay: Hemolysis of erythrocytes on daily IV administration to rats for 14 days; format: in vivo, rat; conditions: daily for 14 days, artelinic acid even at a dose four-fold less than MHP-34a
Description: 4. They are nontoxic in therapeutic dose range.

[1] = Water solubility in pH 7.4 aqueous solution; format: physicochemical
rats = conditions: high doses; cited from earlier work
[2] = system: mouse neuroblastoma cells; conditions: cited from earlier work
[3] = C3-Aryl C12-Methoxy Trioxanes, Expansion data (quadruplicate measurements), read-out: Antimalarial Activity, IC50 (Table 1)
[4] = C3-Substituted C12-Methoxy Trioxanes, Expansion data (quadruplicate measurements), read-out: Antimalarial Activity, IC50 (Table 2)
[5] = in vitro, read-out: In vitro antimalarial assay: IC50
[6] = IV, mice infected with P. berghei, read-out: ED90, IV administration

pIC50 (Plasmodium falciparum; [3]): 7.12
Compound: CO[C@@H]1O[C@@]2(c3ccc(-c4ccccc4)cc3)CC[C@H]3CCCC[C@]31OO2 (relative stereo) [8a]

pIC50 (Plasmodium falciparum; [3]): 7.17
Compound: CO[C@H]1O[C@@]2(c3ccc(-c4ccccc4)cc3)CC[C@H]3CCCC[C@]31OO2 (relative stereo) [8b]

pIC50 (Plasmodium falciparum; [3]): 7.19
Compound: CO[C@@H]1O[C@@]2(c3ccc(F)cc3)CC[C@H]3CCCC[C@]31OO2 (relative stereo) [9a]

pIC50 (Plasmodium falciparum; [3]): 7.52
Compound: CO[C@H]1O[C@@]2(c3ccc(F)cc3)CC[C@H]3CCCC[C@]31OO2 (relative stereo) [9b]

pIC50 (Plasmodium falciparum; [3]): 7.00
Compound: CO[C@@H]1O[C@@]2(c3ccc(F)cc3C)CC[C@H]3CCCC[C@]31OO2 (relative stereo) [10a]

pIC50 (Plasmodium falciparum; [3]): 7.47
Compound: CO[C@H]1O[C@@]2(c3ccc(F)cc3C)CC[C@H]3CCCC[C@]31OO2 (relative stereo) [10b]

pIC50 (Plasmodium falciparum; [3]): 7.11
Compound: CO[C@@H]1O[C@@]2(c3ccc(CO)cc3)CC[C@H]3CCCC[C@]31OO2 (relative stereo) [12a]

pIC50 (Plasmodium falciparum; [3]): 7.82
Compound: CO[C@H]1O[C@@]2(c3ccc(CO)cc3)CC[C@H]3CCCC[C@]31OO2 (relative stereo) [12b]

pIC50 (Plasmodium falciparum; [3]): 7.00
Compound: CO[C@@H]1O[C@@]2(c3ccccc3)CC[C@H]3CCCC[C@]31OO2 (relative stereo) [16a]

pIC50 (Plasmodium falciparum; [3]): 7.42
Compound: CO[C@H]1O[C@@]2(c3ccccc3)CC[C@H]3CCCC[C@]31OO2 (relative stereo) [16b]

pIC50 (Plasmodium falciparum; [4]): 6.49
Compound: CO[C@@H]1O[C@@]2(CF)CC[C@H]3CCCC[C@]31OO2 (relative stereo) [118a]

pIC50 (Plasmodium falciparum; [4]): 6.80
Compound: CO[C@H]1O[C@@]2(CF)CC[C@H]3CCCC[C@]31OO2 (relative stereo) [118b]

pIC50 (Plasmodium falciparum; [4]): 7.41
Compound: CO[C@@H]1O[C@@]2(c3ccc(C(F)(F)F)cc3)CC[C@H]3CCCC[C@]31OO2 (relative stereo) [120a]

pIC50 (Plasmodium falciparum; [4]): 7.28
Compound: CO[C@H]1O[C@@]2(c3ccc(C(F)(F)F)cc3)CC[C@H]3CCCC[C@]31OO2 (relative stereo) [120b]

pIC50 (Plasmodium falciparum; [5]): 7.33
Compound: O=C(O)c1ccc(CO[C@@H]2O[C@@]3(c4ccc(F)cc4)CC[C@H]4CCCC[C@]42OO3)cc1 (relative stereo) [(p-Carboxy)benzyloxy Trioxane (α)-7a]

pIC50 (Plasmodium falciparum; [5]): 7.40
Compound: O=C(O)c1ccc(CO[C@H]2O[C@@]3(c4ccc(F)cc4)CC[C@H]4CCCC[C@]42OO3)cc1 (relative stereo) [(p-Carboxy)benzyloxy Trioxane (β)-7a]

pIC50 (Plasmodium falciparum; [5]): 5.99
solubility [1]: ~90 mM (≈ 30.1 mg/mL)
Compound: CO[C@@H]1O[C@@]2(c3ccc(C(=O)O)cc3)CC[C@H]3CCCC[C@]31OO2 (relative stereo) [MHP-34a, 3-(4'-Carboxyphenyl)-12α-methoxy Trioxane]
ED50 (P. berghei; po, read-out: In vivo antimalarial assay: ED50, oral): 9.5 mg/kg
ED50 (P. berghei; sc, read-out: In vivo antimalarial assay: ED50, subcutaneous): 19.5 mg/kg
ED90 (P. berghei; sc, read-out: In vivo antimalarial assay: ED90, subcutaneous): 92 mg/kg/day
ED90 (P. berghei; [6]): 60 mg/kg/day
ED90 (P. berghei; oral, mice infected with P. berghei, read-out: In vivo antimalarial assay: ED90, oral): 46 mg/kg/day
hemolysis of erythrocytes (erythrocytes): no hemolysis of erythrocytes

pIC50 (Plasmodium falciparum; [5]): 6.82
solubility [1]: ~60 mM (≈ 20.1 mg/mL)
Compound: CO[C@H]1O[C@@]2(c3ccc(C(=O)O)cc3)CC[C@H]3CCCC[C@]31OO2 (relative stereo) [MHP-34b, 3-(4'-Carboxyphenyl)-12β-methoxy Trioxane]
ED90 (P. berghei; [6]): 60 mg/kg/day

pIC50 (Plasmodium falciparum; [3]): 6.22
Compound: CO[C@@H]1O[C@@]2(c3ccco3)CC[C@H]3CCCC[C@]31OO2 (relative stereo) [compound 13]

pIC50 (Plasmodium falciparum; [5]): 8.00
Compound: C[C@@H]1CC[C@H]2[C@@H](C)C(=O)O[C@@H]3O[C@@]4(C)CC[C@@H]1[C@]32OO4 [Artemisinin, artemisinin, reference compound]

Compound: COC1OC2(CCC(C)C)CCC3CCCCC31OO2 (stereo not drawn) [C3 -(CH3)2 CHCH2 CH2 analog]
potency increased by a factor of, over the C3 methyl analog (Plasmodium falciparum; relative to C3 methyl analog): 5

pIC50 (Plasmodium falciparum; printed as In vivo, read-out: In vitro antimalarial assay: IC50): 8.04
Compound: CCOC(=O)Cn1cccc1[C@@H]1O[C@@H]2O[C@@]3(C)CC[C@H]4[C@H](C)CC[C@@H]([C@H]1C)[C@@]24OO3 [MHP-84, 10a-(1'-(Ethoxycarbonylmethyl)pyrrol-2'-yl)-10-deoxoartemisinin]

pIC50 (Plasmodium falciparum; [5]): 6.24
Compound: C[C@H]1[C@H](C(=O)O)O[C@@H]2O[C@@]3(C)CC[C@H]4[C@H](C)CC[C@@H]1[C@@]24OO3 [MHP-108, 10α-Carboxy-10-deoxoartemisinin]

pIC50 (Plasmodium falciparum; [5]): 7.44
Compound: C[C@H]1[C@H](c2cccn2CC(=O)O)O[C@@H]2O[C@@]3(C)CC[C@H]4[C@H](C)CC[C@@H]1[C@@]24OO3 [MHP-153, 10a-(1'-(Carboxymethyl)pyrrol-2'-yl)-10-deoxoartemisinin]

solubility [1]: ~2 mM (≈ 0.837 mg/mL)
Compound: C[C@H]1[C@@H](OCc2ccc(C(=O)O)cc2)O[C@@H]2O[C@@]3(C)CC[C@H]4[C@H](C)CC[C@@H]1[C@@]24OO3 [artelinic acid, Artelinic acid, reference compound]
ED50 (P. berghei; oral, mice infected with P. berghei, comparator, read-out: SD50, oral): 56 mg/kg
hemolysis of erythrocytes (erythrocytes): time-dependent hemolysis

Compound: CO[C@H]1O[C@@H]2O[C@@]3(C)CC[C@H]4[C@H](C)CC[C@@H]([C@H]1C)[C@@]24OO3 [artemether]
neurotoxicity in rats (rats): neurotoxicity has been seen

pIC50 (Plasmodium falciparum; [3]): < 5.60
Compound: COc1ccc(C23CCC4CCCCC4(OO2)C(OC)O3)cc1 (stereo not drawn) [compound 11]

Compound: C[C@H]1[C@@H](O)O[C@@H]2O[C@@]3(C)CC[C@H]4[C@H](C)CC[C@@H]1[C@@]24OO3 [dihydroartemesisin, Dihydroartemisinin]
neurotoxicity in mouse neuroblastoma cells [2]: neurotoxicity has been seen

Reference: US6136847A, “Water-soluble trioxanes as potent and safe antimalarial agents” (Johns Hopkins University, priority 1999, dated 2000)
